Key:
[1] = Selectivity index, ratio of CC50 for african green monkey Vero cells to IC50 for chloroquine-sensitive Plasmodium falciparum 3D7; format: functional
Plasmodium falciparum [2] = assay: Antimalarial activity against chloroquine-sensitive Plasmodium falciparum 3D7 incubated for 72 hrs by SYBR Green 1 assay; format: functional, organism-based; details: 3D7, 72 h
Plasmodium falciparum [3] = assay: Antimalarial activity against chloroquine-resistant Plasmodium falciparum K1 incubated for 72 hrs by SYBR Green 1 assay; format: functional, organism-based; details: K1, 72 h
[4] = Selectivity index, ratio of CC50 for african green monkey Vero cells to IC50 for chloroquine-resistant Plasmodium falciparum K1; format: functional
[5] = Cytotoxicity against african green monkey Vero cells after 72 hrs by MTT assay; format: cell-based; details: chlorocebus sabaeus

With `CNC1=C([N+](=O)[O-])C(c2ccc(N3CCN(c4ccnc5cc(Cl)ccc45)CC3)cc2)c2ccccc2O1` (stereo not drawn) the “Ratio CC50/IC50” value [1] was >180.2, the IC50 (Plasmodium falciparum [2]) was 1.11 µM and the IC50 (Plasmodium falciparum [3]) was 3.38 µM. The “Ratio CC50/IC50” value [4] was >59.2 and the CC50 at 72 h [5] was > 200 µM.
With `CNC1=C([N+](=O)[O-])C(c2ccc(N3CCN(c4ccnc5cc(Cl)ccc45)CC3)cc2)c2cc(Cl)ccc2O1` (stereo not drawn) the “Ratio CC50/IC50” value [1] was 54.3, the IC50 (Plasmodium falciparum [2]) was 1.37 µM and the IC50 (Plasmodium falciparum [3]) was 2.99 µM. The “Ratio CC50/IC50” value [4] was 24.9 and the CC50 at 72 h [5] was 74.5 µM.
In the case of `CNC1=C([N+](=O)[O-])C(c2ccc(N3CCN(c4ccnc5cc(Cl)ccc45)CC3)cc2)c2cc(Br)ccc2O1` (stereo not drawn), the “Ratio CC50/IC50” value [1] is reported as 47.1, the IC50 (Plasmodium falciparum [2]) is reported as 1.88 µM and the IC50 (Plasmodium falciparum [3]) is reported as 1.75 µM. For the same compound, the “Ratio CC50/IC50” value [4] was 50.6 and the CC50 at 72 h [5] was 88.6 µM.
With `CNC1=C([N+](=O)[O-])C(c2ccc(N3CCN(c4ccnc5cc(Cl)ccc45)CC3)cc2)c2cc([N+](=O)[O-])ccc2O1` (stereo not drawn) the “Ratio CC50/IC50” value [1] was 51.4, the IC50 (Plasmodium falciparum [2]) was 0.62 µM and the IC50 (Plasmodium falciparum [3]) was 1.78 µM. The “Ratio CC50/IC50” value [4] was 17.9 and the CC50 at 72 h [5] was 31.9 µM.
For `CNC1=C([N+](=O)[O-])C(c2ccc(N3CCN(c4ccnc5cc(Cl)ccc45)CC3)cc2)c2cc(OC)ccc2O1` (stereo not drawn), the “Ratio CC50/IC50” value [1] was 33, the IC50 (Plasmodium falciparum [2]) was 2.48 µM and the IC50 (Plasmodium falciparum [3]) was 4.25 µM. The “Ratio CC50/IC50” value [4] was 19.3 and the CC50 at 72 h [5] was 81.9 µM.
With `CCOc1cccc2c1OC(NC)=C([N+](=O)[O-])C2c1ccc(N2CCN(c3ccnc4cc(Cl)ccc34)CC2)cc1` (stereo not drawn) the “Ratio CC50/IC50” value [1] was 13.7, the IC50 (Plasmodium falciparum [2]) was 2.93 µM and the IC50 (Plasmodium falciparum [3]) was 2.95 µM. The “Ratio CC50/IC50” value [4] was 13.6 and the CC50 at 72 h [5] was 40.4 µM.
With `CNC1=C([N+](=O)[O-])C(c2ccc(N3CCN(c4ccnc5cc(Cl)ccc45)CC3)cc2)c2cccc(OC)c2O1` (stereo not drawn) the “Ratio CC50/IC50” value [1] was 8.8, the IC50 (Plasmodium falciparum [2]) was 2.47 µM and the IC50 (Plasmodium falciparum [3]) was 2.4 µM. For the same compound, the “Ratio CC50/IC50” value [4] was 9.1 and the CC50 at 72 h [5] was 21.8 µM.
For `CNC1=C([N+](=O)[O-])C(c2ccc(N3CCN(c4ccnc5cc(Cl)ccc45)CC3)cc2)c2cc(Cl)cc(Cl)c2O1` (stereo not drawn), the “Ratio CC50/IC50” value [1] was 24.9, the IC50 (Plasmodium falciparum [2]) was 3.92 µM and the IC50 (Plasmodium falciparum [3]) was 1.45 µM. The “Ratio CC50/IC50” value [4] was 67.4 and the CC50 at 72 h [5] was 97.8 µM.
In the case of `CNC1=C([N+](=O)[O-])C(c2ccc(N3CCN(c4ccnc5cc(Cl)ccc45)CC3)cc2)c2cc(Br)cc(Br)c2O1` (stereo not drawn), the IC50 (Plasmodium falciparum [2]) is reported as > 5 µM, the IC50 (Plasmodium falciparum [3]) is reported as 2.93 µM and the “Ratio CC50/IC50” value [4] is reported as >68.2. The CC50 at 72 h [5] was > 200 µM.
In the case of `CNC1=C([N+](=O)[O-])C(c2ccc(N3CCN(c4ccnc5cc(Cl)ccc45)CC3)cc2)c2c(C=O)c(C)cc(Cl)c2O1` (stereo not drawn), the “Ratio CC50/IC50” value [1] is reported as 35.8, the IC50 (Plasmodium falciparum [2]) is reported as 2.34 µM and the IC50 (Plasmodium falciparum [3]) is reported as 0.87 µM. For the same compound, the “Ratio CC50/IC50” value [4] was 96.5 and the CC50 at 72 h [5] was 84 µM.
For `O=[N+]([O-])C1=C(NCc2ccccc2)Oc2ccccc2C1c1ccc(N2CCN(c3ccnc4cc(Cl)ccc34)CC2)cc1` (stereo not drawn), the “Ratio CC50/IC50” value [1] was <13.3, the IC50 (Plasmodium falciparum [2]) was > 5 µM and the IC50 (Plasmodium falciparum [3]) was > 5 µM. The “Ratio CC50/IC50” value [4] was <13.3 and the CC50 at 72 h [5] was 66.5 µM.
For `O=[N+]([O-])C1=C(NCCc2ccccc2)Oc2ccccc2C1c1ccc(N2CCN(c3ccnc4cc(Cl)ccc34)CC2)cc1` (stereo not drawn), the “Ratio CC50/IC50” value [1] was 39.6, the IC50 (Plasmodium falciparum [2]) was 3.31 µM and the IC50 (Plasmodium falciparum [3]) was 1.74 µM. For the same compound, the “Ratio CC50/IC50” value [4] was 75.5 and the CC50 at 72 h [5] was 131 µM.
With `CCCCNC1=C([N+](=O)[O-])C(c2ccc(N3CCN(c4ccnc5cc(Cl)ccc45)CC3)cc2)c2ccccc2O1` (stereo not drawn) the “Ratio CC50/IC50” value [1] was 34.6, the IC50 (Plasmodium falciparum [2]) was 3.09 µM and the IC50 (Plasmodium falciparum [3]) was 3.57 µM. The “Ratio CC50/IC50” value [4] was 29.9 and the CC50 at 72 h [5] was 107 µM.
For `CNC1=C([N+](=O)[O-])C(c2ccc(N3CCCN(c4ccnc5cc(Cl)ccc45)CC3)cc2)c2ccccc2O1` (stereo not drawn), the “Ratio CC50/IC50” value [1] was <18.3, the IC50 (Plasmodium falciparum [2]) was > 5 µM and the IC50 (Plasmodium falciparum [3]) was > 5 µM. For the same compound, the CC50 at 72 h [5] was 91.4 µM.
In the case of `CNC1=C([N+](=O)[O-])C(c2ccc(N3CCCN(c4ccnc5cc(Cl)ccc45)CC3)cc2)c2cc(Cl)ccc2O1` (stereo not drawn), the “Ratio CC50/IC50” value [1] is reported as 265.4, the IC50 (Plasmodium falciparum [2]) is reported as 0.29 µM and the IC50 (Plasmodium falciparum [3]) is reported as 0.496 µM. The “Ratio CC50/IC50” value [4] was 155.2 and the CC50 at 72 h [5] was 77 µM.
In the case of `CNC1=C([N+](=O)[O-])C(c2ccc(N3CCCN(c4ccnc5cc(Cl)ccc45)CC3)cc2)c2cc(Br)ccc2O1` (stereo not drawn), the “Ratio CC50/IC50” value [1] is reported as >89.3, the IC50 (Plasmodium falciparum [2]) is reported as 2.24 µM and the IC50 (Plasmodium falciparum [3]) is reported as 1.27 µM. The “Ratio CC50/IC50” value [4] was >157.5 and the CC50 at 72 h [5] was > 200 µM.
In the case of `Clc1ccc2c(N3CCN(c4ccccc4)CC3)ccnc2c1`, the “Ratio CC50/IC50” value [1] is reported as 66.3, the IC50 (Plasmodium falciparum [2]) is reported as 2.69 µM and the IC50 (Plasmodium falciparum [3]) is reported as 2.49 µM. For the same compound, the “Ratio CC50/IC50” value [4] was 71.7 and the CC50 at 72 h [5] was 179 µM.
For `Clc1ccc2c(N3CCCN(c4ccccc4)CC3)ccnc2c1`, the “Ratio CC50/IC50” value [1] was 37.1, the IC50 (Plasmodium falciparum [2]) was 3.98 µM and the IC50 (Plasmodium falciparum [3]) was 4.47 µM. For the same compound, the “Ratio CC50/IC50” value [4] was 33.1 and the CC50 at 72 h [5] was 148 µM.

Reference: ChEMBL document CHEMBL3616449, “Synthesis, in vitro and in silico antimalarial activity of 7-chloroquinoline and 4H-chromene conjugates” (Bioorg Med Chem Lett, 2015)
